# According to patent US20100093018A1, “CELLS […] PROTEINS AND ASSAYS USING SUCH CELLS” (ACHILLION PHARMACEUTICALS, INC., priority 2007, published 2010):
# T1: replicase complex (Hepatitis C virus genotype 1b, UniProt Q9WMX2)
# T1 construct: expressed in transfected cells; host or cells: HCV replicon cells (Huh-7 derived)
# T1 sequence (Q9WMX2 1658-1711 limits assumed): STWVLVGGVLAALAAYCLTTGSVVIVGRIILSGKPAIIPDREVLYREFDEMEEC
# B1: HCV NS4A protein (other)
# chain: T1 sequence (Q9WMX2 1658-1711 limits assumed)
# notes: also called hepatitis C virus NS4A; monomer of p14
# B2: NS4A-cFLAG (HCV NS4A (1b) with C-terminal FLAG antibody tag) (other)
# chain: STWVLVGGVLAALAAYCLTTGSVVIVGRIILSGKPAIIPDREVLYREFDEMEECDYKDDDDK
# notes: also called NS4A-FLAG; product of pCl-neo-NS4A-cFlag
# Assays:
# [1] = tested on: HCV replicon; assay: HCV replicon assay (Example 1); assay type: cell-based; conditions: Hepatitis C virus; Huh-7 cells expressing the HCV replicon
# Method: The ability to inhibit viral replication of Hepatitis C can be tested using the HCV replicon expressed in cultured cells in which an HCV replicon construct has been incorporated. The HCV replicon system was described by Bartenschlager, et. al (Science, 285, pp. 110-113, 1999). The replicon system is predictive of in vivo activity against HCV; compounds that are active in humans uniformly evidence activity in the replicon assay.
# In this assay HCV replicon containing cells are treated with different concentrations of the test compound to ascertain the ability of the test compound to suppress replication of the HCV replicon. As a positive control, HCV replicon-containing cells are treated with different concentrations of interferon alpha, a known inhibitor of HCV replication. The replicon assay system includes Neomycin Phosphotransferase (NPT) as a component of the replicon itself as a marker allowing convenient detection of the transcription of replicon gene products in the host cell. Cells in which the HCV replicon is actively replicating have high levels of NPT; the level of NPT is proportional to HCV replication. […] The NPT level of each sample may be measured using a captured ELISA. […]
# HCV replicon-containing cells are examined under a microscope to ensure that cells growing well. […] The cells are counted. […]
# [2] = target: T1, replicase complex; assay: Replicase activity in treated replicon cells (FIG. 3); assay type: cell-based; conditions: 16 hour treatment of replicon cells, concentrations as low as 50 μM
# Description: FIG. 3. ACH-806 is a potent inhibitor of functional replicase complex production.
# [3] = tested on: parental replicon cellular line, Huh-9-13; assay: Susceptibility of parental replicon cellular line; assay type: cell-based, hepatitis C virus; conditions: for EC50: Hepatitis C virus, read-out: EC50 ± SD
# [4] = tested on: ACH-806 resistant replicon cellular lines (806R); assay: Susceptibility of ACH-806 resistant replicon cellular lines; assay type: cell-based, hepatitis C virus; conditions: for Fold change in EC50: versus Huh-9-13
# [5] = tested on: Luc/Parent replicon; assay: Luciferase replicon susceptibility, parent; assay type: cell-based; conditions: Hepatitis C virus, Luc/Parent replicon in Huh-7 cells, two independent experiments
# Method: (§1) To investigate the genetic basis of resistance to ACH-806 in the resistant replicon cellular lines, specifically the role of C16S and A39V in NS3, and 1585T 1 in NS5B, we introduced these mutations separately into a nonselectable replicon containing a luciferase reporter gene. Following the transfection of the parental replicon RNA molecule and the C16S, A39V and I585T variant replicon RNA molecules into Huh-7 cells, the replication capacity of all replicons was determined as described in Method and Materials. Replicon RNA carrying the A39V mutation replicated as efficiently as its parent, whereas the C16S and I585T mutations caused a slight decrease in the replication capacity (about 75% that of the parental replicon). The susceptibility of these four replicons to ACH-806 as well as to other classes of inhibitors was compared side by side, and the results are summarized in Table 2.
# [6] = tested on: Luc/NS3-A39V replicon; assay: Luciferase replicon susceptibility, NS3 A39V; assay type: cell-based, hepatitis C virus
# Method: as §1
# [7] = tested on: Luc/NS3-C16S replicon; assay: Luciferase replicon susceptibility, NS3 C16S; assay type: cell-based, hepatitis C virus
# Method: as §1
# [8] = tested on: Luc/NS5B-I585T; assay type: cell-based, hepatitis C virus
# Method: as §1
# [9] = tested on: C16S or A39V replicon variant; assay: Colony formation with selectable replicon under G418 and ACH-806; assay type: cell-based, hepatitis C virus; conditions: C16S or A39V versus parental selectable replicon
# Description: (§2) To further confirm the role of C16S and A39V in conferring resistance to ACH-806, we introduced both mutations, separately, into a selectable replicon which carries the neo gene and the adaptive mutations that differ from the nonselectable replicon. Following transfection of the parental replicon RNA, the C16S replicon RNA and A39V replicon RNA into Huh-7 cells, the susceptibility of these three replicons to ACH-806, as evaluated by the number of colonies formed under the treatment of both G418 and ACH-806, was compared side by side. Again, an approximately 10-fold reduction in the susceptibility of C16S or A39V replicon variant to ACH-806 was observed.
# [10] = tested on: Luc/NS3-4A^R(S16) replicon; assay: Fragment-cloned luciferase replicon susceptibility, S16; assay type: cell-based; conditions: Hepatitis C virus
# Description: A third approach, fragment cloning, was used to reinforce the role of the C16S mutation and to exclude the role of other nonconsensus mutations in conferring resistant to ACH-806. A ˜3 kb fragment covering the coding region of NS3, NS4A, and part of NS4B was amplified by RT-PCR from total RNA isolated from ACH-806 resistant clone #28. The PCR product was cloned into the nonselectable replicon containing a luciferase reporter gene. Replicon RNA molecules were made from eight individual clones and were transfected into Huh-7 cells to determine the replication capacity by luciferase activity. From the eight clones, two were able to replicate efficiently and sequencing of the entire cloned fragment in these two clones confirmed the existence of C16S mutation in addition to other nonconsensus mutations. The serine at the amino acid residue of NS3 in one of these two clones was then converted back to cysteine using site-directed mutagenesis, leaving other nonconsensus mutations unchanged. The replication capacity of this resulting replicon [Luc/N3-4AR(C16)] was 95% that of its parent [Luc/N3-4AR(S16)] determined as previously described. After transfection into Huh-7 cells, the susceptibility of both replicons was compared. […]
# [11] = tested on: Luc/NS3-4A^R(C16) replicon; assay: Fragment-cloned luciferase replicon susceptibility, C16 revertant; assay type: cell-based, hepatitis C virus
# Description: A third approach, fragment cloning, was used to reinforce the role of the C16S mutation and to exclude the role of other nonconsensus mutations in conferring resistant to ACH-806. A ˜3 kb fragment covering the coding region of NS3, NS4A, and part of NS4B was amplified by RT-PCR from total RNA isolated from ACH-806 resistant clone #28. The PCR product was cloned into the nonselectable replicon containing a luciferase reporter gene. Replicon RNA molecules were made from eight individual clones and were transfected into Huh-7 cells to determine the replication capacity by luciferase activity. From the eight clones, two were able to replicate efficiently and sequencing of the entire cloned fragment in these two clones confirmed the existence of C16S mutation in addition to other nonconsensus mutations. The serine at the amino acid residue of NS3 in one of these two clones was then converted back to cysteine using site-directed mutagenesis, leaving other nonconsensus mutations unchanged. The replication capacity of this resulting replicon [Luc/N3-4AR(C16)] was 95% that of its parent [Luc/N3-4AR(S16)] determined as previously described. After transfection into Huh-7 cells, the susceptibility of both replicons was compared. The reversion of serine back to cysteine at amino acid residue 16 of NS3 increased the susceptibility of the replicon to ACH-806 about 10 fold and maintained the susceptibility to other classes of HCV inhibitors (Table 3). Similar results were also obtained with a fragment containing NS3, 4A and part of 4B derived from a resistant cell line carrying A39V mutation (data not shown).
# [12] = tested on: replicon variants carrying either the C16S or A39V mutation; assay: Summary of three approaches on mutant replicon variants; assay type: cell-based, hepatitis C virus; conditions: all three approaches
# Method: To investigate the genetic basis of resistance to ACH-806 in the resistant replicon cellular lines, specifically the role of C16S and A39V in NS3, and 1585T 1 in NS5B, we introduced these mutations separately into a nonselectable replicon containing a luciferase reporter gene. Following the transfection of the parental replicon RNA molecule and the C16S, A39V and I585T variant replicon RNA molecules into Huh-7 cells, the replication capacity of all replicons was determined as described in Method and Materials. […]
# as §2, with “Again, an approximately 10-fold reduction in the susceptibility of C16S or A39V replicon variant to ACH-806 was observed.” left out
# A third approach, fragment cloning, was used to reinforce the role of the C16S mutation and to exclude the role of other nonconsensus mutations in conferring resistant to ACH-806. […] The replication capacity of this resulting replicon [Luc/N3-4AR(C16)] was 95% that of its parent [Luc/N3-4AR(S16)] determined as previously described. […]
# [13] = tested on: VX-950^R (A156T); assay: Susceptibility of VX-950 resistant replicon cell line; assay type: cell-based, hepatitis C virus; conditions: VX-950^R (A156T) versus Huh-9-13
# [14] = tested on: BILN 2061^R (D168V); assay: Susceptibility of BILN 2061 resistant replicon cell line; assay type: cell-based, hepatitis C virus; conditions: BILN 2061^R (D168V) versus Huh-9-13
# [15] = tested on: NM107^R (S282T); assay: Susceptibility of NM107 resistant replicon cell line; assay type: cell-based, hepatitis C virus; conditions: NM107^R (S282T) versus Huh-9-13
# [16] = tested on: NI-1^R (S282T); assay: Susceptibility of NI-1 resistant replicon cell line; assay type: cell-based, hepatitis C virus; conditions: NI-1^R (S282T) versus Huh-9-13
# [17] = tested on: NNI-1^R (M414T); assay: Susceptibility of NNI-1 resistant replicon cell line; assay type: cell-based, hepatitis C virus; conditions: NNI-1^R (M414T) versus Huh-9-13
# [18] = target: the molecule itself; assay: anti-NS4A immunoprecipitation and immunoblot of replicon cells or NS4A-transfected cells; dimer promoted by the compound ACH-806
# [19] = target: the molecule itself; assay: Western blot of transfected cell lysate, treated with ACH-806
molecule,measurement,setting,value
"CCCCCOc1ccc(NC(=S)NC(=O)c2cccnc2)cc1C(F)(F)F [ACH-806, 1-nicotinoyl-3-(4-(pentyloxy)-3-(trifluoromethyl)phenyl)thiourea]",EC50,[1],14 nM
same,reduction of replicase activity,[2],more than 50%
same,EC50,[3],40 nM
same,Fold change in EC50,[3]; Parental cell line (Table 1),1.0
same,Fold change in EC50,[3]; Parental cell line (Table 4),1.0
same,Fold change in EC50,"[4]; 806^R #6 (Selection 2), NS3 A39V",18.6
same,Fold change in EC50,"[4]; 806^R #8 (Selection 2), NS3 A39V",9.5
same,Fold change in EC50,"[4]; 806^R #9 (Selection 2), NS3 A39V",11.5
same,Fold change in EC50,"[4]; 806^R #22 (Selection 1), NS3 C16S",13.9
same,Fold change in EC50,"[4]; 806^R #23 (Selection 1), NS3 C16S",18.6
same,Fold change in EC50,"[4]; 806^R #24 (Selection 1), NS3 C16S",11.2
same,Fold change in EC50,"[4]; 806^R #25 (Selection 1), NS3 C16S",14.9
same,Fold change in EC50,"[4]; 806^R #28 (Selection 1), NS3 C16S",21.3
same,Average fold change in EC50,[4]; average over 806^R cell lines,14.9
same,EC50,[5]; read-out: Potency EC50,10 ± 10 nM
same,EC90,[5]; read-out: Potency EC90,80 ± 10 nM
same,"Fold change in potency, EC50","[6]; Luc/NS3-A39V versus Luc/Parent replicon, one experiment",14
same,"Fold change in potency, EC50",[6]; {},14.0
same,"Fold change in potency, EC90",[6]; {},13.7
same,"Fold change in potency, EC50",[7]; Luc/NS3-C16S versus Luc/Parent replicon,12
same,"Fold change in potency, EC50",[7]; {},11.1 ± 1.0
same,"Fold change in potency, EC90",[7]; {},11.3 ± 0.9
same,"Fold change in potency, EC50",[8],0.7 ± 0.1
same,"Fold change in potency, EC90",[8],1.1 ± 0.1
same,reduction in the susceptibility (number of colonies formed),[9],approximately 10 fold
same,EC50,[10],270 ± 40 nM
same,EC90,[10],2350 ± 240 nM
same,increase of susceptibility on reversion of serine to cysteine at residue 16 of NS3,[11]; C16 revertant versus S16 replicon,about 10 fold
same,EC50,[11]; Hepatitis C virus,20 nM
same,EC90,[11]; Hepatitis C virus,240 ± 10 nM
same,decrease in the susceptibility,[12],10-15 fold
same,Fold change in EC50,[13],0.6
same,Fold change in EC50,[14],1.1
same,Fold change in EC50,[15],0.5
same,Fold change in EC50,[16],0.8
same,Fold change in EC50,[17],0.9
COc1ccc2c(O[C@@H]3C[C@H]4C(=O)N[C@]5(C(=O)O)C[C@H]5/C=C\CCCCC[C@H](NC(=O)OC5CCCC5)C(=O)N4C3)cc(-c3csc(NC(C)C)n3)nc2c1 [BILN 2061],EC50,[3],1.2 nM
same,Fold change in EC50,[3]; Parental cell line (Table 4),1.0
same,Fold change in EC50,[13],>100
same,Fold change in EC50,[14],>100
same,Fold change in EC50,[15],1.1
same,Fold change in EC50,[16],1.4
same,Fold change in EC50,[17],2.8
C[C@@]1(O)[C@H](O)[C@@H](CO)O[C@H]1n1ccc(N)nc1=O [NM107],Fold change in EC50,[3]; Parental cell line (Table 4),1.0
same,Fold change in EC50,[15],30.7
same,Fold change in EC50,[16],>68.7
CCC[C@H](NC(=O)[C@@H]1[C@H]2CCC[C@H]2CN1C(=O)[C@@H](NC(=O)[C@@H](NC(=O)c1cnccn1)C1CCCCC1)C(C)(C)C)C(=O)C(=O)NC1CC1 [VX-950],EC50,[3],610 nM
same,Fold change in EC50,[3]; Parental cell line (Table 4),1.0
same,Fold change in EC50,[14],2.9
same,Fold change in EC50,[15],0.3
same,Fold change in EC50,[17],2.3
B1,binding result,[18],binds
B2,binding result,[19],binds
